Test results taken from US20240027453A1, “METHOD FOR DETECTION AND QUANTITATIVE MONITORING OF INFECTIONS WITH HERPESVIRUSES” (The Trustees of Princeton University, priority 2020, published 2024).
Read-outs that look alike come from different tables or passages of the source.

System: HCMV
Type: cell-based
Procedure: In example herpesvirus PRM assay methods shown herein, cell pellets were lysed in 2% SDS, 100 mM NaCl, 0.5 mM EDTA, 50 mM Tris, pH 8.2, and 50 μg of protein was reduced and alkylated with 25 mM TCEP and 50 mM CAM respectively for 20 min at 70° C. Proteins were then precipitated via methanol chloroform precipitation (Wessel & Flugg, Anal Biochem. 138(1):141-143, 1984), resuspended in 50 mM HEPES, pH 8.2 and digested overnight with trypsin (50:1 protein:enzyme w/w ratio). Digested peptides were desalted by SDB-RPS StageTip as previously described (Lum et al., Cell Syst., 7(6):[…], 2018; Greco et al., Methods Mol Biol 1410:39-63, 2016; Federspiel & Cristea, Methods Mol Biol., 1977:115-143, 2019).
Peptides (1.0 μg on column) were analyzed by LC-MS/MS using a Dionex Ultimate 3000 UHPLC coupled online to an EASYSpray ion source and a Q Exactive HF. Peptides were separated on an EASYSpray C18 column (75 μm×25 cm) heated to 50° C. using a linear gradient of 5% B to 32% B over 60 min at a flow rate of 250 nL/min and were ionized at 1.7 kv. Mobile phase A consisted of 0.1% FA in H2O and mobile phase B consisted of 0.1% FA, 2.9% H2O in ACN.
The PRM method was controlled by a peptide inclusion list with retention time windows of 6 min for selected precursor ions.
The PRM assay was developed and analyzed using the open-source software Skyline (Maclean et al., Bioinformatics 26(7):966-968, 2010). Summed area under the curve of 3-4 transitions per peptide was used for quantitation. Targeted peptides were normalized to host protein loading control peptides. Peptide values for each sample were scaled to the average of each peptide across all runs. The average of multiple peptides was used as the inferred value for the protein measurement when more than one peptide was quantified (Federspiel et al., PLoS Biol. 17(9):e3000437. Doi: 10.1371/journal.pbio.3000437). PRM quantitation data were graphed using the Python Seaborn and Matplotlib libraries.
MRC5 primary human fibroblasts (HFs) (ATCC CCL-171) were used as the model system for HSV-1 and HCMV infections and were cultured in complete growth medium (DMEM supplemented with 10% fetal bovine serum and 1% penicillin-streptomycin antibiotics) at 37° C. and 5% CO2. iSLK.219 cells harboring latent KSHV (a gift from Dr. Britt Glaunsinger, University of California, Berkeley) were grown in complete growth medium supplemented with 500 μg/ml hygromycin (ThermoFisher Scientific, 10687010) at 37° C. and 5% CO2. All cells were used for experiments within a maximum of 10 passages.
Wild type HSV-1 strain 17+ (a gift from Beate Sodeik, Hannover Medical School, Hannover, Germany) was propagated as previously described (Diner et al., 2015). Briefly, PO stocks were generated by electroporating pBAC-HSV-1 into U-2 OS cells. […] In a similar manner, wild type HCMV strain AD169 was produced from BAC electroporation into HFs and working stocks were propagated by infecting HFs at a low level. In both cases, cell-associated virus was released by sonication, combined with supernatant virus, then concentrated by ultracentrifugation (20,000 rpm, 2 hours, 4° C. with SW28 swinging bucket rotor [Beckman Coulter]) over a 10% ficoll (HSV-1) or 20% sorbitol (HCMV) cushion. Virus stock titers were determined by plaque assay for HSV-1 or tissue culture infectious dose (TCID50) for HCMV and infections were performed at a multiplicity of infection (MOI) of 3.
12 hours prior to virus infection or reactivation, cells were treated with either the small molecule drug or DMSO/PBS control at an equivalent volume. […] For infection cycles lasting longer than 24 hours, small molecule drugs were re-added to the cell culture medium every 24 hours. Upon collection, cells were rinsed with PBS, scraped into a microcentrifuge tube, pelleted by centrifugation, and rinsed again with PBS.

`Nc1ccn(C[C@@H](CO)OCP(=O)(O)O)c(=O)n1` [CDV, cidofovir] was tested, and the “UL80 (P16753) protein, numerical value of heatmap FIG. 6C” value (L, timepoint 96) was 1.017, the “UL82 (P06726) protein, numerical value of heatmap FIG. 6C” value (L, timepoint 96) was 0.9932 and the “UL87 (P16730) protein, numerical value of heatmap FIG. 6C” value (L, timepoint 96) was 0.3187. For the same molecule, the “UL88 (P16731) protein, numerical value of heatmap FIG. 6C” value (L, timepoint 96) was 0.6827, the “UL94 (P16800) protein, numerical value of heatmap FIG. 6C” value (L, timepoint 96) was 0.8521 and the “UL99 (P13200) protein, numerical value of heatmap FIG. 6C” value (L, timepoint 96) was 0.9111. The “UL103 (P16734) protein, numerical value of heatmap FIG. 6C” value (L, timepoint 96) was 0.899, the “UL117 (P16770) protein, numerical value of heatmap FIG. 6C” value (L, timepoint 96) was 0.5858 and the “gH (P12824) protein, numerical value of heatmap FIG. 6C” value (L, timepoint 96) was 1.268. For the same molecule, the “gL (P16832) protein, numerical value of heatmap FIG. 6C” value (L, timepoint 96) was 0.676, the “gM (P16733) protein, numerical value of heatmap FIG. 6C” value (L, timepoint 96) was 0.9966 and the “gN (P16795) protein, numerical value of heatmap FIG. 6C” value (L, timepoint 96) was 0.6947. The “sp|P16809|IR11_HCMVA (P16809) protein, numerical value of heatmap FIG. 6C” value (L, timepoint 96) was 0.6961, the “CVC1 (P16799) protein, numerical value of heatmap FIG. 6C” value (L, timepoint 120) was 0.8775 and the “GO (P16750) protein, numerical value of heatmap FIG. 6C” value (L, timepoint 120) was 0.821. The “MCP (P16729) protein, numerical value of heatmap FIG. 6C” value (L, timepoint 120) was 1.664, the “SCP (Q7M6N6) protein, numerical value of heatmap FIG. 6C” value (L, timepoint 120) was 1.225 and the “TRM2 (P16792) protein, numerical value of heatmap FIG. 6C” value (L, timepoint 120) was 1.244. The “UL22A (P16845) protein, numerical value of heatmap FIG. 6C” value (L, timepoint 120) was 1.64, the “UL25 (P16761) protein, numerical value of heatmap FIG. 6C” value (L, timepoint 120) was 1.445 and the “UL29 (P16764) protein, numerical value of heatmap FIG. 6C” value (L, timepoint 120) was 1.329. The “UL30 (P16765) protein, numerical value of heatmap FIG. 6C” value (L, timepoint 120) was 0.9125, the “UL31 (P16848) protein, numerical value of heatmap FIG. 6C” value (L, timepoint 120) was 1.094 and the “UL43 (P16781) protein, numerical value of heatmap FIG. 6C” value (L, timepoint 120) was 1.1093. For the same molecule, the “UL52 (P16793) protein, numerical value of heatmap FIG. 6C” value (L, timepoint 120) was 1.493, the “UL76 (P16725) protein, numerical value of heatmap FIG. 6C” value (L, timepoint 120) was 0.7396 and the “UL79 (P16752) protein, numerical value of heatmap FIG. 6C” value (L, timepoint 120) was 0.8598. For the same molecule, the “UL80 (P16753) protein, numerical value of heatmap FIG. 6C” value (L, timepoint 120) was 1.249, the “UL82 (P06726) protein, numerical value of heatmap FIG. 6C” value (L, timepoint 120) was 1.469 and the “UL87 (P16730) protein, numerical value of heatmap FIG. 6C” value (L, timepoint 120) was 0.5716. The “UL88 (P16731) protein, numerical value of heatmap FIG. 6C” value (L, timepoint 120) was 0.8088, the “UL94 (P16800) protein, numerical value of heatmap FIG. 6C” value (L, timepoint 120) was 1.266 and the “UL99 (P13200) protein, numerical value of heatmap FIG. 6C” value (L, timepoint 120) was 1.628. For the same molecule, the “UL103 (P16734) protein, numerical value of heatmap FIG. 6C” value (L, timepoint 120) was 1.157, the “UL117 (P16770) protein, numerical value of heatmap FIG. 6C” value (L, timepoint 120) was 0.837 and the “gH (P12824) protein, numerical value of heatmap FIG. 6C” value (L, timepoint 120) was 1.57. The “gL (P16832) protein, numerical value of heatmap FIG. 6C” value (L, timepoint 120) was 1.175, the “gM (P16733) protein, numerical value of heatmap FIG. 6C” value (L, timepoint 120) was 1.476 and the “gN (P16795) protein, numerical value of heatmap FIG. 6C” value (L, timepoint 120) was 1.396. The “sp|P16809|IR11_HCMVA (P16809) protein, numerical value of heatmap FIG. 6C” value (L, timepoint 120) was 0.7634, the “TRX2 (P16728) protein, numerical value of heatmap FIG. 6C” value (LL, timepoint 24) was 0.008754 and the “UL69 (P16749) protein, numerical value of heatmap FIG. 6C” value (LL, timepoint 24) was 0.1676. For the same molecule, the “UL70 (P17149) protein, numerical value of heatmap FIG. 6C” value (LL, timepoint 24) was 0.06824, the “UL83 (P06725) protein, numerical value of heatmap FIG. 6C” value (LL, timepoint 24) was 0.03389 and the “UL132 (P69338) protein, numerical value of heatmap FIG. 6C” value (LL, timepoint 24) was 0.04048. For the same molecule, the “US15 (P09718) protein, numerical value of heatmap FIG. 6C” value (LL, timepoint 24) was 0.5879, the “DUT (P16824) protein, numerical value of heatmap FIG. 6C” value (LL, timepoint 48) was 0.2905 and the “TRX1 (P16783) protein, numerical value of heatmap FIG. 6C” value (LL, timepoint 48) was 0.01277. The “TRX2 (P16728) protein, numerical value of heatmap FIG. 6C” value (LL, timepoint 48) was 0.01952, the “UL24 (P16760) protein, numerical value of heatmap FIG. 6C” value (LL, timepoint 48) was 0.107 and the “UL40 (P16780) protein, numerical value of heatmap FIG. 6C” value (LL, timepoint 48) was 0.3905.
